# Source: ChEMBL document CHEMBL1933042, “Discovery of potent and selective matrix metalloprotease 12 inhibitors for the potential treatment of chronic obstructive pulmonary disease (COPD)” (Bioorg Med Chem Lett, 2012)
# Tests used:
# Homo sapiens [1] = species: Homo sapiens; test: Selectivity ratio of IC50 for human MMP-8 to IC50 for human MMP-12
# Homo sapiens [2] = species: Homo sapiens; test: Selectivity ratio of IC50 for human MMP-13 to IC50 for human MMP-12
# [3] = target: Macrophage metalloelastase (Homo sapiens, UniProt P39900); test: Inhibition of human MMP-12
# Mus musculus [4] = test: Inhibition of human recombinant MMP12-induced lung inflammation in C57BL/6 mouse assessed as reduction in bronchoalveolar lavage inflammation at 10 mg/kg, po bid administered at 2 hrs prior to and 12 hrs post challenge measured 24 hrs after last challenge relative to vehicle treated control; format: functional; details: C57BL/6, Lung
# Mus musculus [5] = test: Inhibition of human recombinant MMP12-induced lung inflammation in po dosed C57BL/6 mouse assessed as minimum effective dose for reduction in Bronchoalveolar Lavage inflammation administered bid at 2 hrs prior to and 12 hrs post challenge measured 24 hrs after last challenge; format: functional; details: C57BL/6, po, read-out: MED
# [6] = AUC in C57BL/6 mouse at 10 mg/kg, po; format: ADME, organism-based; parameters: dose 10 mg/kg, route oral; details: plasma
# [7] = Oral bioavailability in C57BL/6 mouse at 10 mg/kg; format: ADME, organism-based; details: in vivo
# Mus musculus [8] = test: Inhibition of human recombinant MMP12-mediated ear swelling in C57BL/6 mouse at 3 mg/kg, po bid administered 12 hrs and 2 hrs prior to challenge measured after 2 hrs relative to vehicle treated control; format: functional
# Mus musculus [9] = test: Inhibition of human recombinant MMP12-mediated ear swelling in C57BL/6 mouse at 10 mg/kg, po bid administered 12 hrs and 2 hrs prior to challenge measured after 2 hrs relative to vehicle treated control; format: functional
# Mus musculus [10] = test: Inhibition of human recombinant MMP12-mediated ear swelling in C57BL/6 mouse at 30 mg/kg, po bid administered 12 hrs and 2 hrs prior to challenge measured after 2 hrs relative to vehicle treated control; format: functional
# Mus musculus [11] = test: Inhibition of human recombinant MMP12-induced lung inflammation in C57BL/6 mouse assessed as reduction in bronchoalveolar lavage inflammation at 5 mg/kg, po bid at 2 hrs prior to and 12 hrs post challenge measured 24 hrs after last challenge relative to vehicle treated control; format: functional; details: C57BL/6, Lung
# [12] = target: 72 kDa type IV collagenase (Homo sapiens, UniProt P08253); test: Inhibition of human MMP-2
# Stromelysin-1 = Stromelysin-1 (Homo sapiens, UniProt P08254); test: Inhibition of human MMP-3
# Matrilysin = target: T1, Matrilysin (Homo sapiens, UniProt P09237); test: Inhibition of human MMP-7
# T1 sequence (P09237 whole entry): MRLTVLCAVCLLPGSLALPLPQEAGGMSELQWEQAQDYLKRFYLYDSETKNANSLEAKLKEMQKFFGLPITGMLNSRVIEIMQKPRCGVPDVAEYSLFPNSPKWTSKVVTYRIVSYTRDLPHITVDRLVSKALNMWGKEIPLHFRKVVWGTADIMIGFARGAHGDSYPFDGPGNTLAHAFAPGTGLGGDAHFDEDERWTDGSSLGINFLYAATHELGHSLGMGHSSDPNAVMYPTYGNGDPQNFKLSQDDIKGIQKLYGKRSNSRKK
# Neutrophil collagenase = Neutrophil collagenase (Homo sapiens, UniProt P22894); test: Inhibition of human MMP-8
# [13] = target: Matrix metalloproteinase-9 (Homo sapiens, UniProt P14780); test: Inhibition of human MMP-9
# Collagenase 3 = Collagenase 3 (Homo sapiens, UniProt P45452); test: Inhibition of human MMP-13
# [14] = Aqueous solubility of the compound at pH 7.4; format: physicochemical; details: buffer
# Salmonella typhimurium = test: Mutagenicity in Salmonella Typhimurium by AMES test; format: toxicity, organism-based; details: salmonella enterica subsp. enterica serovar typhimurium
# [15] = target: Voltage-gated inwardly rectifying potassium channel KCNH2 (Homo sapiens, UniProt Q12809); test: Inhibition of human ERG
# [16] = target: Macrophage metalloelastase (Mus musculus, UniProt P34960); test: Inhibition of mouse MMP-12
# [17] = target: Macrophage metalloelastase (Oryctolagus cuniculus, UniProt P79227); test: Inhibition of rabbit MMP-12
# [18] = target: Matrix metalloproteinase-12 (Canis lupus familiaris, UniProt A9X4R8); test: Inhibition of dog MMP-12
# [19] = Inhibition of monkey MMP-12; parameters: species or system Macaca mulatta
# [20] = Inhibition of sheep MMP-12; parameters: species or system Ovis aries
# [21] = Volume of distribution at steady state in C57BL/6 mouse at 2 mg/kg, iv; format: ADME, organism-based; parameters: dose 2 mg/kg, route intravenous; details: in vivo, read-out: Vdss
# [22] = Clearance in C57BL/6 mouse at 2 mg/kg, iv; format: ADME, organism-based; parameters: dose 2 mg/kg, route intravenous; details: in vivo
# [23] = Half life in C57BL/6 mouse at 10 mg/kg, po; format: ADME, organism-based; parameters: dose 10 mg/kg, route oral; details: in vivo
# [24] = Cmax in C57BL/6 mouse at 10 mg/kg, po; format: ADME, organism-based; parameters: dose 10 mg/kg, route oral; details: in vivo
# Chain of Macrophage metalloelastase (Mus musculus, UniProt P34960) (P34960 whole entry): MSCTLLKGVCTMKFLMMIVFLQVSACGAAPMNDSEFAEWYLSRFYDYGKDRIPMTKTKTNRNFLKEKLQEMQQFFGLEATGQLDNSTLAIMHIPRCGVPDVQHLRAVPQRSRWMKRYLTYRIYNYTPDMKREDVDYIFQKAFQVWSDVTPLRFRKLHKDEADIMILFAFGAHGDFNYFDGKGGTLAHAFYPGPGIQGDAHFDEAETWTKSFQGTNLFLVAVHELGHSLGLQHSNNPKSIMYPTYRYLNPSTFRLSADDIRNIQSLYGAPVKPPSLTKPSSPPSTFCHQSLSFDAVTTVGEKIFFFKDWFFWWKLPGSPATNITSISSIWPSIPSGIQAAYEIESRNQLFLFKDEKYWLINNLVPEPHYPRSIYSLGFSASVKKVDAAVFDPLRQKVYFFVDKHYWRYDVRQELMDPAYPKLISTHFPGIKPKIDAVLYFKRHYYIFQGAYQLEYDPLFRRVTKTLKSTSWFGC
# Chain of Matrix metalloproteinase-9 (P14780 whole entry): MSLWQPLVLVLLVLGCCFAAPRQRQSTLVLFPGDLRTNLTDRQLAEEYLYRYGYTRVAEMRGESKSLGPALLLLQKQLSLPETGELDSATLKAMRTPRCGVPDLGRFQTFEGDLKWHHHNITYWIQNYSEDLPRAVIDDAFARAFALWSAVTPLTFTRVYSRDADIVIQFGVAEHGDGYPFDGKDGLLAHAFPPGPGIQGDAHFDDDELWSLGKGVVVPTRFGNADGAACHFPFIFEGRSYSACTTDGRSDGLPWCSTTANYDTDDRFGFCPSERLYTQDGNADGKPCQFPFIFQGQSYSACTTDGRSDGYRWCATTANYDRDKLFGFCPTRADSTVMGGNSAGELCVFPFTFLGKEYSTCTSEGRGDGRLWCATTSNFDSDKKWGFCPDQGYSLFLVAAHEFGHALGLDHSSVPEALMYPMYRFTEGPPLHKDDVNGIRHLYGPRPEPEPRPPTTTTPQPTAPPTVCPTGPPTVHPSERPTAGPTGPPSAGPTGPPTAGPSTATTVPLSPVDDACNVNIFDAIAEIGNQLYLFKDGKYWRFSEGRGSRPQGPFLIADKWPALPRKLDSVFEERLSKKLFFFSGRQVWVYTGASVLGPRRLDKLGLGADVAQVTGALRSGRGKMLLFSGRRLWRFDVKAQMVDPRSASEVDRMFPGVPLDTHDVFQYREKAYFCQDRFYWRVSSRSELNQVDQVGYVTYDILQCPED
# Chain of Matrix metalloproteinase-12 (A9X4R8 whole entry): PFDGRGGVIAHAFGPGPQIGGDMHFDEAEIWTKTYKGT
# Chain of Macrophage metalloelastase (Homo sapiens, UniProt P39900) (P39900 whole entry): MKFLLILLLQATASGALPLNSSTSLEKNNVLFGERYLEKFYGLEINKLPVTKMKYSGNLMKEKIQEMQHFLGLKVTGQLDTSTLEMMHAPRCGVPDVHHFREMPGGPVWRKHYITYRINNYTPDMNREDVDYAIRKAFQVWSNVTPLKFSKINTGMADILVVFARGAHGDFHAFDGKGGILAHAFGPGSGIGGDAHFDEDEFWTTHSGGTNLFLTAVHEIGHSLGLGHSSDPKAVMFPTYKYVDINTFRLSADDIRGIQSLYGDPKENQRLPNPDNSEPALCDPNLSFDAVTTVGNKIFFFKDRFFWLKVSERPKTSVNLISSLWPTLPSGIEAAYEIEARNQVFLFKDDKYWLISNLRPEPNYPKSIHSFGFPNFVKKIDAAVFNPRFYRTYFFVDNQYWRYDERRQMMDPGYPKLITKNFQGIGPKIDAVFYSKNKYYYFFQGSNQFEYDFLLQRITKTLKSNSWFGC
# Chain of 72 kDa type IV collagenase (P08253 whole entry): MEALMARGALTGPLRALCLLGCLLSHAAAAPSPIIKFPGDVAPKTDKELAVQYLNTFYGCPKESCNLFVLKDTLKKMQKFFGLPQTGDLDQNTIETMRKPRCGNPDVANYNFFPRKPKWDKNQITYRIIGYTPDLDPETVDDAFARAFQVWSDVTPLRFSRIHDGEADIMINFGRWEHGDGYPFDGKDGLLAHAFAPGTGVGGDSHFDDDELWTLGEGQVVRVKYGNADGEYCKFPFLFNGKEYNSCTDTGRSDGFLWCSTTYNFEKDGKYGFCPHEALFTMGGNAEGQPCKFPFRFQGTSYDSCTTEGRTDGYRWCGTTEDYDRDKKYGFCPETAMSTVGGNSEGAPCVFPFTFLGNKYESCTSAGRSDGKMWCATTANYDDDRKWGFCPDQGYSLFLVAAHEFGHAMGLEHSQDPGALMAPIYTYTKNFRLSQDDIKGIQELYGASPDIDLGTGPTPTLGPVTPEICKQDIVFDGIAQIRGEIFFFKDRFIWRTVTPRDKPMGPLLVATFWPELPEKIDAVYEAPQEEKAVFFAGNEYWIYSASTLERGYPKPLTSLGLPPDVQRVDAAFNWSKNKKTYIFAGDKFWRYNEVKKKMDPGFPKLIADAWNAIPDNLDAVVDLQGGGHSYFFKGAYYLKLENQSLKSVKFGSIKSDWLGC
# Chain of Voltage-gated inwardly rectifying potassium channel KCNH2 (Q12809 whole entry): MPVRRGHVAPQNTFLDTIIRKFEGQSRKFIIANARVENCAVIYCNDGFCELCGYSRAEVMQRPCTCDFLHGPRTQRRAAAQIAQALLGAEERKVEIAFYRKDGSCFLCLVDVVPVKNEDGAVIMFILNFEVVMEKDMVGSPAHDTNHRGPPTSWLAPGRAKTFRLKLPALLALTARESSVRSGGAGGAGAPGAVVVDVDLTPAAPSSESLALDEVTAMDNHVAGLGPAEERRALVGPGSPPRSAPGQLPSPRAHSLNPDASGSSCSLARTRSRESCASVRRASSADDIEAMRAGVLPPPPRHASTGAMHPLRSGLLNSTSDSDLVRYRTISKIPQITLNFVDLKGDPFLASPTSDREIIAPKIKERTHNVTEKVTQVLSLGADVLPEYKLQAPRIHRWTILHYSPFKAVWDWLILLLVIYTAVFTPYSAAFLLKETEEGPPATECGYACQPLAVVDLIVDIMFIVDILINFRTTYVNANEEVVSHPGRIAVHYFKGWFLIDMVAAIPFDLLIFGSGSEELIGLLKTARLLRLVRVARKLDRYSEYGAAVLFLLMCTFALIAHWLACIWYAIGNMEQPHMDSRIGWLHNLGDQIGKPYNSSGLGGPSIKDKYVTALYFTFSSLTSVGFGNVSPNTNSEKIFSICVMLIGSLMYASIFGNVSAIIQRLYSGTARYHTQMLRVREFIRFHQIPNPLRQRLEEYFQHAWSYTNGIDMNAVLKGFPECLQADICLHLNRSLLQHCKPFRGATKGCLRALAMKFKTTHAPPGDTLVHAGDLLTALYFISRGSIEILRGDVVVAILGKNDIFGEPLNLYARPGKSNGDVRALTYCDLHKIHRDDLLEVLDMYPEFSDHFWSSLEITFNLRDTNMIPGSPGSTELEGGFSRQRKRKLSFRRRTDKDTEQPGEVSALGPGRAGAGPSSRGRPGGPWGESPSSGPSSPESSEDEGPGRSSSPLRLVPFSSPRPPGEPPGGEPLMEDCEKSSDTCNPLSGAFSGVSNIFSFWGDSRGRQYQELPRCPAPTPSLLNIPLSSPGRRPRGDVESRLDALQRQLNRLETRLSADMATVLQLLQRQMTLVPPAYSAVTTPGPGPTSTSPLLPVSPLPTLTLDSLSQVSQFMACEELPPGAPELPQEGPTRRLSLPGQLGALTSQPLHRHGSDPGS
# Chain of Stromelysin-1 (P08254 whole entry): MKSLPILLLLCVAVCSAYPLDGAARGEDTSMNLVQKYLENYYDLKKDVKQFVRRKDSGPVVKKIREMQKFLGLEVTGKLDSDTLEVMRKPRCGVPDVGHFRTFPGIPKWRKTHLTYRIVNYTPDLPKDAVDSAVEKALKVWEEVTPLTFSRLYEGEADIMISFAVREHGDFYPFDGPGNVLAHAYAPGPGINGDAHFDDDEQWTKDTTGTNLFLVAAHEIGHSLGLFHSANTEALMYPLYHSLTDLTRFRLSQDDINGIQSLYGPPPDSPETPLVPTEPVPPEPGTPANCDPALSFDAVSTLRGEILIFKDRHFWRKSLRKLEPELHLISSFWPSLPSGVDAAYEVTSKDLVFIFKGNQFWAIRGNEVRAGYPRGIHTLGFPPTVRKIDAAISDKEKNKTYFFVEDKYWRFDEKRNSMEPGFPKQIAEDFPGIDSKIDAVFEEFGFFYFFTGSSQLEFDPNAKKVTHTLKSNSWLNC
# Chain of Macrophage metalloelastase (Oryctolagus cuniculus, UniProt P79227) (P79227 whole entry): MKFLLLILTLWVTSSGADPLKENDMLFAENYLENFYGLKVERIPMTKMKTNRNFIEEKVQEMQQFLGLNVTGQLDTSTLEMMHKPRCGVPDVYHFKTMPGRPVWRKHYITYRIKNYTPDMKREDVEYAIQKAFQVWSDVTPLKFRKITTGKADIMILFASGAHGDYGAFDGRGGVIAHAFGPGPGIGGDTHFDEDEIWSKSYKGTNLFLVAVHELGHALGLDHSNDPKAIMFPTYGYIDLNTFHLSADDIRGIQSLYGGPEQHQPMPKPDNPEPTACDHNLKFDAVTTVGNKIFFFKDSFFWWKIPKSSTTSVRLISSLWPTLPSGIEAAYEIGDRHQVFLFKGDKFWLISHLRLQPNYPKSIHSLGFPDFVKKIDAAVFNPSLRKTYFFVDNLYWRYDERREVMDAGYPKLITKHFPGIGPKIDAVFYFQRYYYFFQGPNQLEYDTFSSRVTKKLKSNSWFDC
# Chain of Neutrophil collagenase (P22894 whole entry): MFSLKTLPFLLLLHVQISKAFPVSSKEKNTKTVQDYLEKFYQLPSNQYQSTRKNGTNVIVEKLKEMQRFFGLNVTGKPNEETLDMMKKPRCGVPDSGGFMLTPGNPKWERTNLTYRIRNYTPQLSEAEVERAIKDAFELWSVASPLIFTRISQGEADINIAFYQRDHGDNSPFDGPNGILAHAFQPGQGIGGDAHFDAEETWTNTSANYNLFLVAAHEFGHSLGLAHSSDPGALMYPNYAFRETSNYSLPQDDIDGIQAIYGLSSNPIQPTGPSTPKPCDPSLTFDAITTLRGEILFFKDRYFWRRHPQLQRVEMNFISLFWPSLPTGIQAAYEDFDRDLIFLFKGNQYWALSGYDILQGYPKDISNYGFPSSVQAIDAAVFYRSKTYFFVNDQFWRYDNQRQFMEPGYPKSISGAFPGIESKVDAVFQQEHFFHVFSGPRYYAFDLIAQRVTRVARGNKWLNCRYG
compound,measurement,setting,value
COCc1nc(-c2ccc3oc4cc(S(=O)(=O)N[C@H](C(=O)O)C(C)C)ccc4c3c2)no1,Ratio IC50,Homo sapiens [1],10
CC(C)[C@H](NS(=O)(=O)c1ccc2c(c1)oc1ccc(-c3noc(-c4ccccc4)n3)cc12)C(=O)O,Ratio IC50,Homo sapiens [1],60
CC(C)[C@H](NS(=O)(=O)c1ccc2c(c1)oc1ccc(N3CCNCC3)cc12)C(=O)O,Ratio IC50,Homo sapiens [2],34
same,Ratio IC50,Homo sapiens [1],2
CC(C)[C@H](NS(=O)(=O)c1ccc2c(c1)oc1ccc(-c3ccc[nH]3)cc12)C(=O)O,Ratio IC50,Homo sapiens [2],525
same,Ratio IC50,Homo sapiens [1],143
CC(C)[C@H](NS(=O)(=O)c1ccc2c(c1)oc1ccc(N3CCOCC3)cc12)C(=O)O,Ratio IC50,Homo sapiens [2],154
same,Ratio IC50,Homo sapiens [1],3
CC(C)[C@H](NS(=O)(=O)c1ccc2c(c1)oc1ccc(-c3ccoc3)cc12)C(=O)O,Ratio IC50,Homo sapiens [2],900
same,Ratio IC50,Homo sapiens [1],33
CC(C)[C@H](NS(=O)(=O)c1ccc2c(c1)oc1ccc(-n3cccn3)cc12)C(=O)O,Ratio IC50,Homo sapiens [2],37
same,Ratio IC50,Homo sapiens [1],15
CCc1nc(-c2ccc3oc4cc(S(=O)(=O)N[C@H](C(=O)O)C(C)C)ccc4c3c2)no1,Ratio IC50,Homo sapiens [1],1.4
CC(C)[C@H](NS(=O)(=O)c1ccc2c(c1)oc1ccc(-c3cc[nH]n3)cc12)C(=O)O,IC50,[3],< 1 nM
same,Ratio IC50,Homo sapiens [2],> 1130
same,Ratio IC50,Homo sapiens [1],> 2500
Cc1ccc(-c2ccc3oc4cc(S(=O)(=O)N[C@H](C(=O)O)C(C)C)ccc4c3c2)s1,Ratio IC50,Homo sapiens [2],1200
same,Ratio IC50,Homo sapiens [1],125
CC(C)[C@H](NS(=O)(=O)c1ccc2c(c1)oc1ccc(-c3noc(C(F)(F)F)n3)cc12)C(=O)O,Ratio IC50,Homo sapiens [1],45
CC(C)[C@H](NS(=O)(=O)c1ccc2c(c1)oc1ccc(-c3noc(C4CCOC4)n3)cc12)C(=O)O (some centres undefined),Ratio IC50,Homo sapiens [1],100
CC(C)[C@H](NS(=O)(=O)c1ccc2c(c1)oc1ccc(-n3ccc(C(F)(F)F)n3)cc12)C(=O)O,Ratio IC50,Homo sapiens [2],349
same,Ratio IC50,Homo sapiens [1],44
CC(C)c1nc(-c2ccc3oc4cc(S(=O)(=O)N[C@H](C(=O)O)C(C)C)ccc4c3c2)no1,Ratio IC50,Homo sapiens [1],19
CC(C)[C@H](NS(=O)(=O)c1ccc2c(c1)oc1ccc(-c3ccc(Cl)o3)cc12)C(=O)O,Ratio IC50,Homo sapiens [2],1440
same,Ratio IC50,Homo sapiens [1],70
CC(C)[C@H](NS(=O)(=O)c1ccc2c(c1)oc1ccc(-c3noc(C4CC4)n3)cc12)C(=O)O,Ratio IC50,Homo sapiens [1],56
Cc1cnc(-c2ccc3oc4cc(S(=O)(=O)N[C@H](C(=O)O)C(C)C)ccc4c3c2)s1,Ratio IC50,Homo sapiens [2],460
same,Ratio IC50,Homo sapiens [1],158
CC(C)[C@H](NS(=O)(=O)c1ccc2c(c1)oc1ccc(-n3cncn3)cc12)C(=O)O,Ratio IC50,Homo sapiens [2],34
same,Ratio IC50,Homo sapiens [1],4
CC(C)[C@H](NS(=O)(=O)c1ccc2c(c1)oc1ccc(-c3noc(C4CCC4)n3)cc12)C(=O)O,Ratio IC50,Homo sapiens [1],44
CC(C)[C@H](NS(=O)(=O)c1ccc2c(c1)oc1ccc(-c3cccs3)cc12)C(=O)O,Ratio IC50,Homo sapiens [2],1690
same,Ratio IC50,Homo sapiens [1],100
CC(C)[C@H](NS(=O)(=O)c1ccc2c(c1)oc1ccc(N3CCN(C)CC3)cc12)C(=O)O,Ratio IC50,Homo sapiens [2],38
same,Ratio IC50,Homo sapiens [1],0.5
CC(C)[C@H](NS(=O)(=O)c1ccc2c(c1)oc1ccc(-c3nccs3)cc12)C(=O)O,inhibition in vivo at 10 mg/kg,Mus musculus [4],> 50%
same,minimal effective dose,Mus musculus [5],5 mg/kg
same,AUC,[6],20300 ng·h/mL
same,bioavailability,[7],63%
same,inhibition in vivo at 3 mg/kg,Mus musculus [8],24.9%
same,inhibition in vivo at 10 mg/kg,Mus musculus [9],38.6%
same,inhibition in vivo at 30 mg/kg,Mus musculus [10],65.2%
same,inhibition in vivo at 5 mg/kg,Mus musculus [11],> 50%
same,Ratio IC50,Homo sapiens [2],1980
same,Ratio IC50,Homo sapiens [1],154
same,IC50,[12],501 nM
same,IC50,Stromelysin-1,2530 nM
same,IC50,Matrilysin,57700 nM
same,IC50,Neutrophil collagenase,154 nM
same,IC50,[13],1970 nM
same,IC50,Collagenase 3,1980 nM
same,solubility,[14],550 µg/mL
same,Activity,Salmonella typhimurium,Non-toxic
same,inhibition (INH),[15],Not Active
same,IC50,[16],85 nM
same,IC50,[17],57 nM
same,IC50,[18],70 nM
same,IC50,[19],244 nM
same,IC50,[20],5.4 nM
same,Vd,[21],0.8 L/kg
same,clearance,[22],5 mL/min/kg
same,half-life,[23],2.9 h
same,Cmax,[24],5550 ng/mL
COC(=O)Nc1ccc2oc3cc(S(=O)(=O)N[C@H](C(=O)O)C(C)C)ccc3c2c1,Ratio IC50,Homo sapiens [2],60
